“Also recorded” adds a separate entry of the source.
Legend:
[1] = system: WT HIV-1; type: cell-based; conditions: for antiviral activity in the single replication cycle assay: concentrations up to 10 μM, data not shown
[2] = system: HIV-1 IIIB; assay: microbe, parasite or virus in culture; type: cell-based; conditions: Human immunodeficiency virus 1, IIIB, CEM-SS, read-out: Inhibition % @ 10 μM
[3] = Compound cytotoxicity / cell viability in the cytoprotection assay; type: cell-based; conditions: human, CEM-SS cells
[4] = target: AZT-resistant HIV-1 RT (AZTr) D67N/K70R/T215F/K219Q (Human immunodeficiency virus type 1 group M subtype B, UniProt P03366, D666N/K669R/K818Q/T814F); type: biochemical; conditions: ATP-mediated excision by AZTr RT; chain-terminated primer
[5] = system: AZT-resistant HIV (D67N/K70R/T215F/K219Q); assay: Single replication cycle antiviral assay, AZT-resistant virus; type: cell-based; conditions: read-out: EC50 AZTr HIV
[6] = system: NNRTI-resistant HIV (L100I/K103N); type: cell-based; conditions: read-out: EC50 NNRTIr HIV

Cc1cn([C@H]2C[C@H](n3nncc3C3CCCCC3)[C@@H](CO)O2)c(=O)[nH]c1=O [Compound 18l, 1-((2R,4S,5S)-4-(5-Cyclohexyl-1H-1,2,3-triazol-1-yl)-5-(hydroxymethyl)tetrahydrofuran-2-yl)-5-methylpyrimidine-2,4(1H,3H)-dione]
antiviral activity in the single replication cycle assay [1]: did not produce significant antiviral activity; also recorded: none showed significant antiviral activity | inhibition at 10 µM [2]: 100% | viability at 6 days, 10 µM [3]: 100%

Cc1cn([C@H]2C[C@H](n3nncc3-c3ccc(-c4ccccc4)cc3)[C@@H](CO)O2)c(=O)[nH]c1=O [Compound 18j, 1-((2R,4S,5S)-4-(5-([1,1’-Biphenyl]-4-yl)-1H-1,2,3-triazol-1-yl)-5-(hydroxymethyl)tetrahydrofuran-2-yl)-5-methylpyrimidine-2,4(1H,3H)-dione]
antiviral activity in the single replication cycle assay [1]: none showed significant antiviral activity

Cc1cn([C@H]2C[C@H](n3nncc3-c3cccc4ccccc34)[C@@H](COP(=O)([O-])OP(=O)([O-])OP(=O)([O-])[O-])O2)c(=O)[nH]c1=O.[Na+].[Na+].[Na+].[Na+] [Compound 21a]
rate of nucleotide excision of the terminal nucleotide [4]: 0.0126 min⁻¹

Cc1cn([C@H]2C[C@H](n3nncc3COc3cccc4ccccc34)[C@@H](CO)O2)c(=O)[nH]c1=O [Compound 9c, 1-((2R,4S,5S)-5-(Hydroxymethyl)-4-(5-((naphthalen-1-yloxy)methyl)-1H-1,2,3-triazol-1-yl)tetrahydrofuran-2-yl)-5-methylpyrimidine-2,4(1H,3H)-dione]
antiviral activity in the single replication cycle assay [1]: none showed significant antiviral activity

Cc1cn([C@H]2C[C@H](n3nncc3-c3ccc(Oc4ccccc4)cc3)[C@@H](CO)O2)c(=O)[nH]c1=O [Compound 18i, 1-((2R,4S,5S)-5-(Hydroxymethyl)-4-(5-(4-phenoxyphenyl)-1H-1,2,3-triazol-1-yl)tetrahydrofuran-2-yl)-5-methylpyrimidine-2,4(1H,3H)-dione]
antiviral activity in the single replication cycle assay [1]: none showed significant antiviral activity

COc1ccc2cc(OCc3cnnn3[C@H]3C[C@H](n4cc(C)c(=O)[nH]c4=O)O[C@@H]3CO)ccc2c1 [Compound 9e, 1-((2R,4S,5S)-5-(Hydroxymethyl)-4-(5-(((6-methoxynaphthalen-2-yl)oxy)methyl)-1H-1,2,3-triazol-1-yl)tetrahydrofuran-2-yl)-5-methylpyrimidine-2,4(1H,3H)-dione]
antiviral activity in the single replication cycle assay [1]: none showed significant antiviral activity

Cc1cn([C@H]2C[C@H](n3nncc3-c3ccc(Cl)c(Cl)c3)[C@@H](CO)O2)c(=O)[nH]c1=O [Compound 18n, 1-((2R,4S,5S)-4-(5-(3,4-Dichlorophenyl)-1H-1,2,3-triazol-1-yl)-5-(hydroxymethyl)tetrahydrofuran-2-yl)-5-methylpyrimidine-2,4(1H,3H)-dione]
antiviral activity in the single replication cycle assay [1]: none showed significant antiviral activity

3’-Azidothymidine [AZT, reference compound]
EC50 [5]: 7900 nM | EC50 ([1]; read-out: Single Replication Cycle Assay EC50, WT HIV, WT HIV-1, P4R5 cells): 140 nM | rate of nucleotide excision of the terminal nucleotide [4]: 0.024 min⁻¹ | EC50 [6]: 120 nM

Source: PMC4027054 (Journal of medicinal chemistry, 2013)
